# Measurements published in paper PMC5218480 (PLoS ONE, 2017).
# Test system: MV-4-11 cells
# Test: Gene expression microarray analysis (Affymetrix PrimeView) and GSEA
# Assay type: cell-based, human
# Set-up: RFU PODN (11730768_x_at) / Fold change /veh PODN (11730768_x_at) / RFU LINC00158 (11744669_a_at) / Fold change /veh LINC00158 (11744669_a_at) / RFU DUSP10 (11751237_a_at) / Fold change /veh DUSP10 (11751237_a_at) / RFU ID3 (11757404_x_at) / Fold change /veh ID3 (11757404_x_at) / RFU PLEKHG5 (11737974_s_at) / Fold change /veh PLEKHG5 (11737974_s_at) / RFU LRRC4B (11730491_at) / Fold change /veh LRRC4B (11730491_at) / RFU GIMAP4 (11747438_a_at) / Fold change /veh GIMAP4 (11747438_a_at) / RFU KRT8 (11758183_x_at) / Fold change /veh KRT8 (11758183_x_at) / RFU CNN1 (11734310_a_at) / Fold change /veh CNN1 (11734310_a_at) / RFU VPS37D (11726825_at) / Fold change /veh VPS37D (11726825_at) / RFU C10orf10 (11716522_x_at) / Fold change /veh C10orf10 (11716522_x_at) / RFU KIR2DL2 /// KIR2DL4 /// KIR2DL5A /// KIR2DL5B /// KIR2DS1 /// KIR2DS2 /// KIR2DS3 /// KIR2DS4 /// KIR3DL3 /// KIR3DL3 /// KIR3DS1 (11738374_at) / Fold change /veh KIR2DL2 /// KIR2DL4 /// KIR2DL5A /// KIR2DL5B /// KIR2DS1 /// KIR2DS2 /// KIR2DS3 /// KIR2DS4 /// KIR3DL3 /// KIR3DL3 /// KIR3DS1 (11738374_at) / RFU C1QL1 (11718748_at) / Fold change /veh C1QL1 (11718748_at) / RFU TMPRSS4 (11747572_a_at) / Fold change /veh TMPRSS4 (11747572_a_at) / RFU HAMP (11756126_x_at) / Fold change /veh HAMP (11756126_x_at) / RFU RNFT2 (11725882_a_at) / Fold change /veh RNFT2 (11725882_a_at) / RFU NR4A2 (11747474_a_at) / Fold change /veh NR4A2 (11747474_a_at) / RFU ABCC12 (11746883_a_at) / Fold change /veh ABCC12 (11746883_a_at) / RFU TMEM136 (11760407_x_at) / Fold change /veh TMEM136 (11760407_x_at) / RFU CLDN22 /// WWC2 (11732394_at) / Fold change /veh CLDN22 /// WWC2 (11732394_at) / RFU HLA-DPB1 (11760878_x_at) / Fold change /veh HLA-DPB1 (11760878_x_at) / RFU SPINT1 (11716480_a_at) / Fold change /veh SPINT1 (11716480_a_at) / RFU GAP43 (11754022_s_at) / Fold change /veh GAP43 (11754022_s_at) / RFU A4GNT (11735810_at) / Fold change /veh A4GNT (11735810_at) / RFU PRB3 (11715151_x_at) / Fold change /veh PRB3 (11715151_x_at) / RFU TUBB4B (11761932_at) / Fold change /veh TUBB4B (11761932_at) / RFU CAPN14 (11732068_a_at) / Fold change /veh CAPN14 (11732068_a_at) / RFU TMCC2 (11721928_a_at) / Fold change /veh TMCC2 (11721928_a_at) / RFU IRGQ (11745062_a_at) / Fold change /veh IRGQ (11745062_a_at) / RFU FAM174B (11720279_a_at) / Fold change /veh FAM174B (11720279_a_at) / RFU TMPRSS4 (11748680_a_at) / Fold change /veh TMPRSS4 (11748680_a_at) / RFU FAM212B (11763350_a_at) / Fold change /veh FAM212B (11763350_a_at) / RFU PLEKHG5 (11743358_a_at) / Fold change /veh PLEKHG5 (11743358_a_at) / RFU ZSCAN30 (11745921_a_at) / Fold change /veh ZSCAN30 (11745921_a_at) / RFU CMKLR1 (11741424_a_at) / Fold change /veh CMKLR1 (11741424_a_at) / RFU LOC101060620 /// MAPK8IP1 (11723275_at) / Fold change /veh LOC101060620 /// MAPK8IP1 (11723275_at) / RFU SPTSSB (11747773_x_at) / Fold change /veh SPTSSB (11747773_x_at) / RFU PRSS12 (11739890_at) / Fold change /veh PRSS12 (11739890_at) / RFU BIN1 (11741810_x_at) / Fold change /veh BIN1 (11741810_x_at) / RFU WNT11 (11732464_a_at) / Fold change /veh WNT11 (11732464_a_at) / RFU C10orf10 (11716521_a_at) / Fold change /veh C10orf10 (11716521_a_at) / RFU C5orf56 (11738089_at) / Fold change /veh C5orf56 (11738089_at) / RFU CYB561 (11721691_x_at) / Fold change /veh CYB561 (11721691_x_at) / RFU ANKRD19P (11752326_a_at) / Fold change /veh ANKRD19P (11752326_a_at) / RFU OR2T12 /// OR2T33 /// OR2T8 (11738714_s_at) / Fold change /veh OR2T12 /// OR2T33 /// OR2T8 (11738714_s_at) / RFU VCAN (11748164_a_at) / Fold change /veh VCAN (11748164_a_at) / RFU JSRP1 (11732532_at) / Fold change /veh JSRP1 (11732532_at) / RFU KRTAP10-11 (11738290_x_at) / Fold change /veh KRTAP10-11 (11738290_x_at) / RFU MYO3A (11730013_a_at) / Fold change /veh MYO3A (11730013_a_at) / RFU EBF3 (11725865_a_at) / Fold change /veh EBF3 (11725865_a_at) / RFU CAMK2N1 (11719241_x_at) / Fold change /veh CAMK2N1 (11719241_x_at) / RFU C5orf56 (11738088_a_at) / Fold change /veh C5orf56 (11738088_a_at) / RFU OLFML3 (11715873_a_at) / Fold change /veh OLFML3 (11715873_a_at) / RFU LOC100653217 /// NTM (11731650_a_at) / Fold change /veh LOC100653217 /// NTM (11731650_a_at) / RFU MAPK11 (11762145_a_at) / Fold change /veh MAPK11 (11762145_a_at) / RFU FIZ1 (11724087_x_at) / Fold change /veh FIZ1 (11724087_x_at) / RFU OASL (11726364_x_at) / Fold change /veh OASL (11726364_x_at) / RFU SOX15 (11748057_x_at) / Fold change /veh SOX15 (11748057_x_at) / RFU CD79A (11719716_a_at) / Fold change /veh CD79A (11719716_a_at) / RFU HIST1H1D (11736915_at) / Fold change /veh HIST1H1D (11736915_at) / RFU CASKIN2 (11723855_a_at) / Fold change /veh CASKIN2 (11723855_a_at) / RFU LOC730098 (11760151_x_at) / Fold change /veh LOC730098 (11760151_x_at) / RFU OR4N2 (11742367_at) / Fold change /veh OR4N2 (11742367_at) / RFU PRRT2 (11749266_a_at) / Fold change /veh PRRT2 (11749266_a_at) / RFU SNX32 (11753110_a_at) / Fold change /veh SNX32 (11753110_a_at) / RFU CDHR5 (11726645_a_at) / Fold change /veh CDHR5 (11726645_a_at) / RFU RCAN1 (11760418_a_at) / Fold change /veh RCAN1 (11760418_a_at) / RFU FAM167A (11723789_a_at) / Fold change /veh FAM167A (11723789_a_at) / RFU FAM26E (11764081_at) / Fold change /veh FAM26E (11764081_at) / RFU ISYNA1 (11749810_s_at) / Fold change /veh ISYNA1 (11749810_s_at) / RFU ACY1 (11761880_at) / Fold change /veh ACY1 (11761880_at) / RFU 11764098_at / Fold change /veh 11764098_at / RFU SAMD14 (11745864_x_at) / Fold change /veh SAMD14 (11745864_x_at) / RFU NPB (11741838_a_at) / Fold change /veh NPB (11741838_a_at) / RFU TMPRSS6 (11731388_a_at) / Fold change /veh TMPRSS6 (11731388_a_at) / RFU KRTAP10-2 (11738614_at) / Fold change /veh KRTAP10-2 (11738614_at) / RFU ARHGAP8 /// PRR5-ARHGAP8 (11727945_x_at) / Fold change /veh ARHGAP8 /// PRR5-ARHGAP8 (11727945_x_at) / RFU KRTAP5-7 /// NADSYN1 (11734609_at) / Fold change /veh KRTAP5-7 /// NADSYN1 (11734609_at) / RFU RASL12 (11751679_a_at) / Fold change /veh RASL12 (11751679_a_at) / RFU CDKN2B (11736163_a_at) / Fold change /veh CDKN2B (11736163_a_at) / RFU PRF1 (11729649_at) / Fold change /veh PRF1 (11729649_at) / RFU, ZNF638 /// ZNF638-IT1 / Fold change vs veh, ZNF638 /// ZNF638-IT1 / RFU, PANK3 / Fold change vs veh, PANK3 / RFU, SH3YL1 / Fold change vs veh, SH3YL1 / RFU, ZEB2 / Fold change vs veh, ZEB2 / RFU, NRIP1 / Fold change vs veh, NRIP1 / RFU, PTTG1IP / Fold change vs veh, PTTG1IP / RFU, CAPN2 / Fold change vs veh, CAPN2 / RFU, MED14 / Fold change vs veh, MED14 / RFU, SNORA58 / Fold change vs veh, SNORA58 / RFU, C1orf63 / Fold change vs veh, C1orf63 / RFU, LRRFIP1 / Fold change vs veh, LRRFIP1 / RFU, NDUFAF7 / Fold change vs veh, NDUFAF7 / RFU, SLC12A2 / Fold change vs veh, SLC12A2 / RFU, IBTK / Fold change vs veh, IBTK / RFU, ESF1 / Fold change vs veh, ESF1 / Fold change vs veh, TMEM50B / RFU, TAOK1 / Fold change vs veh, TAOK1 / RFU, ACBD3 / Fold change vs veh, ACBD3 / RFU, TMA16 / Fold change vs veh, TMA16 / RFU, RWDD3 / Fold change vs veh, RWDD3 / RFU, BCAT1 / Fold change vs veh, BCAT1 / RFU, EDEM3 / Fold change vs veh, EDEM3 / RFU, TMEM33 / Fold change vs veh, TMEM33 / RFU, WDR75 / Fold change vs veh, WDR75 / RFU, AHCTF1 / Fold change vs veh, AHCTF1 / RFU, TFRC / Fold change vs veh, TFRC / RFU, ZDHHC17 / Fold change vs veh, ZDHHC17 / RFU, NOM1 / Fold change vs veh, NOM1 / RFU, ARL8B / Fold change vs veh, ARL8B / RFU, ZBTB11 / Fold change vs veh, ZBTB11 / RFU, TAMM41 / Fold change vs veh, TAMM41 / RFU, KIAA1704 /// LOC100996395 / Fold change vs veh, KIAA1704 /// LOC100996395 / RFU, ING1 / Fold change vs veh, ING1 / RFU, TRMT61B / Fold change vs veh, TRMT61B / RFU, FUBP3 / Fold change vs veh, FUBP3 / RFU, TP53 / Fold change vs veh, TP53 / RFU, TNKS2 / Fold change vs veh, TNKS2 / RFU, ZFP14 / Fold change vs veh, ZFP14 / RFU, ACTR2 / Fold change vs veh, ACTR2 / RFU, PPP3R1 / Fold change vs veh, PPP3R1 / RFU, PIK3R1 / Fold change vs veh, PIK3R1 / RFU, HNRNPA1 / Fold change vs veh, HNRNPA1 / RFU, RNF170 / Fold change vs veh, RNF170 / RFU, ZNF28 / Fold change vs veh, ZNF28 / RFU, RNGTT / Fold change vs veh, RNGTT / RFU, OGT / Fold change vs veh, OGT / RFU, BRD1 / Fold change vs veh, BRD1 / RFU, MARS / Fold change vs veh, MARS / RFU, ZNF655 / Fold change vs veh, ZNF655 / RFU, FAHD1 / Fold change vs veh, FAHD1 / RFU, BDP1 / Fold change vs veh, BDP1 / RFU, LRRCC1 / Fold change vs veh, LRRCC1 / RFU, ARID1A / Fold change vs veh, ARID1A / RFU, ZNF146 / Fold change vs veh, ZNF146 / RFU, ZNF330 / Fold change vs veh, ZNF330 / RFU, GPN3 / Fold change vs veh, GPN3 / RFU, C9orf123 / Fold change vs veh, C9orf123 / RFU, N4BP2L2 / Fold change vs veh, N4BP2L2 / RFU, ARFIP1 / Fold change vs veh, ARFIP1 / RFU, FAM179B / Fold change vs veh, FAM179B / RFU, BCL10 / Fold change vs veh, BCL10 / RFU, UHRF1BP1L / Fold change vs veh, UHRF1BP1L / RFU, BET1 / Fold change vs veh, BET1 / RFU, CNOT2 / Fold change vs veh, CNOT2 / RFU, ZNF268 / Fold change vs veh, ZNF268 / Fold change vs veh, ZNF507 / RFU, DGCR2 / Fold change vs veh, DGCR2 / RFU, WDSUB1 / Fold change vs veh, WDSUB1 / Fold change vs veh, HSP90B1 /// MIR3652 / RFU, ADSS / Fold change vs veh, ADSS / RFU, GK / Fold change vs veh, GK / RFU, ZNF148 / Fold change vs veh, ZNF148 / RFU, TAF9 / Fold change vs veh, TAF9 / RFU, SLC1A5 / Fold change vs veh, SLC1A5 / RFU, SLMO2 / Fold change vs veh, SLMO2 / RFU, ABCC4 / Fold change vs veh, ABCC4 / RFU, LOC101060439 /// RAP1B / Fold change vs veh, LOC101060439 /// RAP1B / RFU, RFX7 / Fold change vs veh, RFX7 / RFU, GTPBP10 / Fold change vs veh, GTPBP10 / RFU, CNEP1R1 / Fold change vs veh, CNEP1R1 / RFU, BIVM-ERCC5 /// ERCC5 / Fold change vs veh, BIVM-ERCC5 /// ERCC5 / RFU, ILF3 / Fold change vs veh, ILF3 / RFU 11762660_at / Fold change /veh 11762660_at / RFU VCAN (11757783_s_at) / Fold change /veh VCAN (11757783_s_at) / RFU DDX43 (11728927_at) / Fold change /veh DDX43 (11728927_at) / RFU KRT8 (11758188_x_at) / Fold change /veh KRT8 (11758188_x_at) / RFU NKD1 (11759106_at) / Fold change /veh NKD1 (11759106_at) / RFU SRD5A1 (11742802_a_at) / Fold change /veh SRD5A1 (11742802_a_at) / RFU TPSAB1 /// TPSB2 (11721975_s_at) / Fold change /veh TPSAB1 /// TPSB2 (11721975_s_at) / RFU GSTM3 (11746129_a_at) / Fold change /veh GSTM3 (11746129_a_at) / RFU IL23R (11737362_x_at) / Fold change /veh IL23R (11737362_x_at) / RFU TMEM51 (11727254_a_at) / Fold change /veh TMEM51 (11727254_a_at) / RFU PIWIL2 (11732686_x_at) / Fold change /veh PIWIL2 (11732686_x_at) / RFU ORM1 (11744905_x_at) / Fold change /veh ORM1 (11744905_x_at) / RFU CCDC152 (11743942_at) / Fold change /veh CCDC152 (11743942_at) / RFU ECM1 (11717891_a_at) / Fold change /veh ECM1 (11717891_a_at) / RFU IL23R (11748794_a_at) / Fold change /veh IL23R (11748794_a_at) / RFU TNFAIP8L3 (11732012_x_at) / Fold change /veh TNFAIP8L3 (11732012_x_at) / RFU MBOAT4 (11741988_at) / Fold change /veh MBOAT4 (11741988_at) / RFU 11764193_at / Fold change /veh 11764193_at / RFU TMEM53 (11763286_at) / Fold change /veh TMEM53 (11763286_at) / RFU MAGEB2 (11727129_at) / Fold change /veh MAGEB2 (11727129_at) / RFU TMEM200A (11744735_a_at) / Fold change /veh TMEM200A (11744735_a_at) / RFU CCDC152 (11751479_a_at) / Fold change /veh CCDC152 (11751479_a_at) / RFU FAM211A (11726209_a_at) / Fold change /veh FAM211A (11726209_a_at) / RFU RGS16 (11746705_a_at) / Fold change /veh RGS16 (11746705_a_at) / RFU VCAN (11755009_s_at) / Fold change /veh VCAN (11755009_s_at) / RFU RHOB (11743442_s_at) / Fold change /veh RHOB (11743442_s_at) / RFU RGS16 (11720943_a_at) / Fold change /veh RGS16 (11720943_a_at) / RFU RGS16 (11720944_at) / Fold change /veh RGS16 (11720944_at) / RFU, VPS4B / Fold change vs veh, VPS4B / RFU, CREB1 / Fold change vs veh, CREB1 / RFU, DNAJC13 / Fold change vs veh, DNAJC13 / RFU, GNAQ / Fold change vs veh, GNAQ / RFU, CDK5R1 / Fold change vs veh, CDK5R1 / RFU, ZRANB3 / Fold change vs veh, ZRANB3 / RFU, CUL4A / Fold change vs veh, CUL4A / RFU, CCNY / Fold change vs veh, CCNY / RFU, UFL1 / Fold change vs veh, UFL1 / RFU, COG3 / Fold change vs veh, COG3 / RFU, DIAPH2 / Fold change vs veh, DIAPH2 / RFU, SKA2 / Fold change vs veh, SKA2 / RFU, AFF3 / Fold change vs veh, AFF3 / RFU, LMF1 / Fold change vs veh, LMF1 / RFU, IPO11 / Fold change vs veh, IPO11 / RFU, DFFB / Fold change vs veh, DFFB / RFU, FOXP1 / Fold change vs veh, FOXP1 / RFU, CARD8 / Fold change vs veh, CARD8 / RFU, STRN3 / Fold change vs veh, STRN3 / RFU, ADK / Fold change vs veh, ADK / RFU, RASSF2 / Fold change vs veh, RASSF2 / RFU, WIPF1 / Fold change vs veh, WIPF1 / RFU, LARP1B / Fold change vs veh, LARP1B / RFU, RASA1 / Fold change vs veh, RASA1 / RFU, RB1 / Fold change vs veh, RB1 / RFU, PPFIA1 / Fold change vs veh, PPFIA1 / RFU, MAT2A / Fold change vs veh, MAT2A / RFU, CCT5 / Fold change vs veh, CCT5 / RFU, WDR92 / Fold change vs veh, WDR92 / RFU, CUX1 / Fold change vs veh, CUX1 / RFU, TTC7A / Fold change vs veh, TTC7A / RFU, TMEM135 / Fold change vs veh, TMEM135 / RFU, DEPTOR / Fold change vs veh, DEPTOR / RFU, CPM / Fold change vs veh, CPM / RFU, DNAJB6 / Fold change vs veh, DNAJB6 / RFU, CACNA2D3 / Fold change vs veh, CACNA2D3 / RFU, DTX4 / Fold change vs veh, DTX4 / RFU, TFCP2 / Fold change vs veh, TFCP2 / RFU, GMCL1 /// GMCL1P1 / Fold change vs veh, GMCL1 /// GMCL1P1 / RFU, AEBP2 / Fold change vs veh, AEBP2 / RFU, SNHG1 /// SNORD22 /// SNORD25 /// SNORD26 /// SNORD27 /// SNORD28 /// SNORD29 /// SNORD31 / Fold change vs veh, SNHG1 /// SNORD22 /// SNORD25 /// SNORD26 /// SNORD27 /// SNORD28 /// SNORD29 /// SNORD31 / Fold change (Aza/veh), C12orf56 (ProbeSet 11735607_a_at) / Fold change (ACY-1035/veh), C12orf56 (ProbeSet 11735607_a_at) / Fold change (Aza/veh), FGFR1OP (ProbeSet 11751329_s_at) / Fold change (ACY-1035/veh), FGFR1OP (ProbeSet 11751329_s_at) / Fold change (Aza/veh), VPS36 (ProbeSet 11739960_a_at) / Fold change (ACY-1035/veh), VPS36 (ProbeSet 11739960_a_at) / RFU SYPL1 (11715823_x_at) / Fold change /veh SYPL1 (11715823_x_at) / RFU IGFBP7 (11715501_s_at) / Fold change /veh IGFBP7 (11715501_s_at) / RFU REEP3 (11722064_at) / Fold change /veh REEP3 (11722064_at) / RFU IGLL1 (11728026_x_at) / Fold change /veh IGLL1 (11728026_x_at): dose or concentration left out as unconfirmed
# Conditions: ProbeSet 11757113_a_at; LIST D
structure (smiles),measurement,value
Nc1ncn([C@@H]2O[C@H](CO)[C@@H](O)[C@H]2O)c(=O)n1 [azacitidine],"Fold change vs veh, SNHG1 /// SNORD22 /// SNORD25 /// SNORD26 /// SNORD27 /// SNORD28 /// SNORD29 /// SNORD31",0.81
